Data published in patent US5760092A, “Allocolchinones and uses thereof” (Brandeis University, priority 1996, dated 1998).
Like-named read-outs stand apart in the source and are kept apart here.

Legend:
[1] = tested on: OVCAR-3 ovarian cancer cells
[2] = tested on: HS 578T breast cancer cells; assay: cells; conditions: Homo sapiens

**Q.** How did the TGI [1] turn out when `COc1cc2c(c(OC)c1OC)-c1ccc(C(C)=O)cc1C(NC(C)=O)CC2` (stereo not shown) was run?
**A.** > 100 µM

**Q.** What about the “Percent Growth” value ([1]; log10 conc -6.0, 1 µM) of the same molecule?
**A.** 7%

**Q.** What about the “Percent Growth” value ([1]; log10 conc -7.0, 0.1 µM) of the same molecule?
**A.** 15%

**Q.** And the “Percent Growth” value ([1]; log10 conc -8.0)?
**A.** 23%

**Q.** What about the activity at 100 µM ([2]; read-out: Percent Growth, log10 conc -4.0) of the same molecule?
**A.** 16%

**Q.** What about the activity at 10 µM ([2]; read-out: Percent Growth, log10 conc -5.0) of the same molecule?
**A.** 27%

**Q.** And the activity at 0.1 µM ([2]; read-out: Percent Growth, log10 conc -7.0)?
**A.** 38%

**Q.** And the activity at 0.01 µM ([2]; read-out: Percent Growth, log10 conc -8.0)?
**A.** 39%

**Q.** What about the activity at 0.001 µM ([2]; read-out: Percent Growth, log10 conc -9.0) of the same molecule?
**A.** 27%

**Q.** And the activity at 0.0001 µM ([2]; read-out: Percent Growth, log10 conc -10.0)?
**A.** 103%
